Columns and labels:
Type in all cases: cell-based
[1] = test system: YAP/TAZ-TEAD transcription; test: Reporter gene assay for measuring the inhibition of YAP/TAZ-TEAD transcription; conditions: Homo sapiens, HEK-293T; Hek293T cells transiently transfected with TEAD-responsive element luciferase reporter; 24 hours incubation
Description: Hek293T cells are cultured in DMEM supplemented with 10% fetal bovine serum, Sodium pyruvate, Sodium bicarbonate, L-glutamine. The cells are harvested and transiently transfected with TEAD-responsive element luciferase reporter. Transfected cells are plated in 384-wells plate containing pre-diluted compounds. After 24 hours incubation at 37° C./5% CO2, assay plates were cooled down to RT and levelled to an equal volume per well, prior to the addition of 25 uL luciferase substrate SteadyLite (Perkin Elmer)/well. The plate was shaken for 10 min at 600 rpm, centrifuged for 1 min at 500 rpm and measured with an Envision reader (PerkinElmer). The amount of relative light units produced by the TEAD reporter is used to calculated percent of inhibition.
The percent of reporter inhibition was calculated in the presence of a positive control inhibitor (100% inhibition) versus a condition with the presence of the vehicle basal activity of the reporter (0% inhibition). The ability of a test compound to inhibit this activity was determined as: Percentage inhibition=[1−((RLU determined in the presence of vehicle−RLU determined for sample with test compound present) divided by (RLU determined in the presence of vehicle−RLU determined for sample with positive control inhibitor))]*100 The activities of example compounds tested are depicted in Table 8. The activity ranges A, B and C refer to IC50 values in the reporter gene assay as follows: “A”: EC50<1 μM; “B”: 1 μM≤EC50≤3.0 μM and “C”: EC50>3.0 μM, NT=not tested.

NCI-H226 = test: Mesothelioma cell line proliferation assay (NCI-H226); conditions: Homo sapiens, 144 h; NCI-H226 cells; 6 days with compound; cell viability by ATPlite
Description: (§1) Mesothelioma cell lines, NCI-H226 and NCI-H2052 (all sourced from the ATCC cell culture collection) are plated in 96-well plates (Corning® 96 Well White Polystyrene Microplate clear flat bottom, white polystyrene (TC-Treated)), at 1500 cells/well in full medium (RPMI 1640 ATCC modification with L-glutamine, HEPES, Phenol Red, Sodium Pyruvate, High glucose, Low sodium bicarbonate and 10% fetal bovine serum). Cells are incubated overnight at 37° C. in an incubator with 5% CO2. Then compounds, dissolved in DMSO, are added in dose-response. Cells are incubated with compound dilutions for another 6 days at 37° C. in an incubator with 5% CO2. Cell viability is quantitated using the ATPlite kit (Perkin-Elmer) and the luminescence is read-out using an Envision instrument (Perkin-Elmer). The amount of relative light units produced using the ATPlite kit is used to calculated percent of inhibition.
(§2) The activities of some example compounds are depicted in Table 9. The activity ranges A, B and C refer to EC50 values in the mesothelioma cell line proliferation assay as described as follows: “A”: EC50<1 μM; “B”: 1 μM≤EC50≤10 μM and “C”: EC50>10 μM; NT: not tested.

NCI-H2052 = test: Mesothelioma cell line proliferation assay (NCI-H2052); conditions: Homo sapiens, 144 h; NCI-H2052 cells; 6 days with compound; cell viability by ATPlite
Description: as §1, §2

EC50 [1]	EC50 (NCI-H226)	EC50 (NCI-H2052)	Compound
< 1000 nM	< 1000 nM	1000 to 10000 nM	C=CC(=O)N1Cc2nc(Cc3ccccc3)nc(-c3ccn(C)n3)c2C1 [Cpd. No. 20, 1-(2-benzyl-4-(1-methyl-1H-pyrazol-3-yl)-5,7-dihydro-6H-pyrrolo[3,4-d]pyrimidin-6-yl)prop-2-en-1-one]
< 1000 nM	< 1000 nM	1000 to 10000 nM	C=CC(=O)N1CCc2c(nc(-c3cccc(C(F)(F)F)c3)nc2-c2ccn(C)n2)C1 [Cpd. No. 55, 1-(4-(1-methyl-1H-pyrazol-3-yl)-2-(3-(trifluoromethyl)phenyl)-5,8-dihydropyrido[3,4-d]pyrimidin-7(6H)-yl)prop-2-en-1-one]
< 1000 nM	< 1000 nM	> 10000 nM	C=C(F)C(=O)N1CCc2c(nc(-c3ccc(C(F)(F)F)cc3)nc2-c2ccn(C)n2)C1 [Cpd. No. 71, 2-fluoro-1-(4-(1-methyl-1H-pyrazol-3-yl)-2-(4-(trifluoromethyl)phenyl)-5,8-dihydropyrido[3,4-d]pyrimidin-7(6H)-yl)prop-2-en-1-one]
< 1000 nM	< 1000 nM	> 10000 nM	C=CC(=O)N1CCc2c(nc(C3CCC(F)(F)CC3)nc2-c2ccn(C)n2)C1 [Cpd. No. 89, 1-(2-(4,4-difluorocyclohexyl)-4-(1-methyl-1H-pyrazol-3-yl)-5,8-dihydropyrido[3,4-d]pyrimidin-7(6H)-yl)prop-2-en-1-one]
< 1000 nM	–	–	C=CS(=O)(=O)N1CCc2c(nc(-c3ccc(C(F)(F)F)cc3)nc2-c2ccn(C)n2)C1 [Cpd. No. 80, 4-(1-methyl-1H-pyrazol-3-yl)-2-(4-(trifluoromethyl)phenyl)-7-(vinylsulfonyl)-5,6,7,8-tetrahydropyrido[3,4-d]pyrimidine]
> 3000 nM	–	–	Cn1ccc(-c2nc(-c3ccccc3)nc3c2CCC(N)C3)n1 (stereo not drawn) [Cpd. No. 5, 4-(1-methyl-1H-pyrazol-3-yl)-2-phenyl-5,6,7,8-tetrahydroquinazolin-7-amine]
1000 to 3000 nM	–	–	CCC(=O)N1CCc2c(nc(-c3ccc(C(F)(F)F)cc3)nc2-c2cnn(C)n2)C1 [Cpd. No. 93, 1-(4-(2-methyl-2H-1,2,3-triazol-4-yl)-2-(4-(trifluoromethyl)phenyl)-5,8-dihydropyrido[3,4-d]pyrimidin-7(6H)-yl)propan-1-one]
> 3000 nM	–	–	CCC(=O)N1Cc2nc(-c3ccccc3)nc(-c3ccn(C)n3)c2C1 [Cpd. No. 15, 1-(4-(1-methyl-1H-pyrazol-3-yl)-2-phenyl-5,7-dihydro-6H-pyrrolo[3,4-d]pyrimidin-6-yl)propan-1-one]
< 1000 nM	–	–	C/C=C/C(=O)N1CCc2c(nc(C3CCC(F)(F)CC3)nc2-c2ccn(C)n2)C1 [Cpd. No. 95, (E)-1-(2-(4,4-difluorocyclohexyl)-4-(1-methyl-1H-pyrazol-3-yl)-5,8-dihydropyrido[3,4-d]pyrimidin-7(6H)-yl)but-2-en-1-one]
> 3000 nM	–	–	CCC(=O)N1CCc2c(nc(Cc3ccccc3)nc2-c2ccn(C)n2)C1 [Cpd. No. 33, 1-(2-benzyl-4-(1-methyl-1H-pyrazol-3-yl)-5,8-dihydropyrido[3,4-d]pyrimidin-7(6H)-yl)propan-1-one]
1000 to 3000 nM	–	–	C=CC(=O)N1CCc2c(nc(-c3ccccc3)nc2C(=O)NCc2cccnc2)C1 [Cpd. No. 58, 7-acryloyl-2-phenyl-N-(pyridin-3-ylmethyl)-5,6,7,8-tetrahydropyrido[3,4-d]pyrimidine-4-carboxamide]
> 3000 nM	–	–	CC(=O)NCC(=O)N1Cc2nc(Cc3ccccc3)nc(-c3ccn(Cc4cccnc4)n3)c2C1 [Cpd. No. 27, N-(2-(2-benzyl-4-(1-(pyridin-3-ylmethyl)-1H-pyrazol-3-yl)-5,7-dihydro-6H-pyrrolo[3,4-d]pyrimidin-6-yl)-2-oxoethyl)acetamide]
< 1000 nM	–	–	C=CC(=O)N1CCc2c(nc(-c3ccc(F)cc3)nc2-c2ccn(C(F)F)n2)C1 [Cpd. No. 70, 1-(4-(1-(difluoromethyl)-1H-pyrazol-3-yl)-2-(4-fluorophenyl)-5,8-dihydropyrido[3,4-d]pyrimidin-7(6H)-yl)prop-2-en-1-one]
> 3000 nM	–	–	Cn1ccc(-c2nc(-c3ccccc3)nc3c2CC(N)CC3)n1 (stereo not drawn) [Cpd. No. 1, 4-(1-methyl-1H-pyrazol-3-yl)-2-phenyl-5,6,7,8-tetrahydroquinazolin-6-amine]
< 1000 nM	–	–	C=CC(=O)N1CCc2c(nc(-c3ccccc3)nc2-c2ccn(CC)n2)C1 [Cpd. No. 59, 1-(4-(1-ethyl-1H-pyrazol-3-yl)-2-phenyl-5,8-dihydropyrido[3,4-d]pyrimidin-7(6H)-yl)prop-2-en-1-one]
< 1000 nM	–	–	C=CC(=O)N1CCc2c(nc(Cc3cccc(C(F)(F)F)c3)nc2-c2ccn(Cc3cccnc3)n2)C1 [Cpd. No. 50, 1-(4-(1-(pyridin-3-ylmethyl)-1H-pyrazol-3-yl)-2-(3-(trifluoromethyl)benzyl)-5,8-dihydropyrido[3,4-d]pyrimidin-7(6H)-yl)prop-2-en-1-one]
> 3000 nM	–	–	C=CC(=O)NC1CCc2nc(-c3ccccc3)nc(-c3ccn(Cc4cccnc4)n3)c2C1 (stereo not drawn) [Cpd. No. 9, N-(2-phenyl-4-(1-(pyridin-3-ylmethyl)-1H-pyrazol-3-yl)-5,6,7,8-tetrahydroquinazolin-6-yl)acrylamide]
> 3000 nM	–	–	Cn1ccc(-c2nc(-c3ccccc3)nc3c2CCC(NS(C)(=O)=O)C3)n1 (stereo not drawn) [Cpd. No. 8, N-(4-(1-methyl-1H-pyrazol-3-yl)-2-phenyl-5,6,7,8-tetrahydroquinazolin-7-yl)methanesulfonamide]
1000 to 3000 nM	–	–	CCC(=O)N1CCc2c(nc(Cc3cccc(C(F)(F)F)c3)nc2-c2ccn(C)n2)C1 [Cpd. No. 48, 1-(4-(1-methyl-1H-pyrazol-3-yl)-2-(3-(trifluoromethyl)benzyl)-5,8-dihydropyrido[3,4-d]pyrimidin-7(6H)-yl)propan-1-one]
> 3000 nM	–	–	CS(=O)(=O)N1CCc2c(nc(Cc3ccccc3)nc2-c2ccn(Cc3cccnc3)n2)C1 [Cpd. No. 37, 2-benzyl-7-(methylsulfonyl)-4-(1-(pyridin-3-ylmethyl)-1H-pyrazol-3-yl)-5,6,7,8-tetrahydropyrido[3,4-d]pyrimidine]
> 3000 nM	–	–	CCC(=O)NC1CCc2c(nc(-c3ccccc3)nc2-c2ccn(C)n2)C1 (stereo not drawn) [Cpd. No. 7, N-(4-(1-methyl-1H-pyrazol-3-yl)-2-phenyl-5,6,7,8-tetrahydroquinazolin-7-yl)propionamide]
1000 to 3000 nM	–	–	C=CC(=O)N1CCc2c(nc(-c3ccccc3)nc2-c2ccnn2C)C1 [Cpd. No. 62, 1-(4-(1-methyl-1H-pyrazol-5-yl)-2-phenyl-5,8-dihydropyrido[3,4-d]pyrimidin-7(6H)-yl)prop-2-en-1-one]
> 3000 nM	–	–	CCC(=O)N1CCc2c(nc(Cc3ccc(F)cc3)nc2-c2ccn(C)n2)C1 [Cpd. No. 42, 1-(2-(4-fluorobenzyl)-4-(1-methyl-1H-pyrazol-3-yl)-5,8-dihydropyrido[3,4-d]pyrimidin-7(6H)-yl)propan-1-one]
1000 to 3000 nM	–	–	CCC(=O)N1CCc2c(nc(Cc3ccccc3)nc2-c2ccn(Cc3cccnc3)n2)C1 [Cpd. No. 36, 1-(2-benzyl-4-(1-(pyridin-3-ylmethyl)-1H-pyrazol-3-yl)-5,8-dihydropyrido[3,4-d]pyrimidin-7(6H)-yl)propan-1-one]
1000 to 3000 nM	–	–	CS(=O)(=O)N1Cc2nc(Cc3ccccc3)nc(-c3ccn(Cc4cccnc4)n3)c2C1 [Cpd. No. 19, 2-benzyl-6-(methylsulfonyl)-4-(1-(pyridin-3-ylmethyl)-1H-pyrazol-3-yl)-6,7-dihydro-5H-pyrrolo[3,4-d]pyrimidine]
< 1000 nM	–	–	C=CC(=O)N1Cc2nc(-c3ccccc3)nc(-c3ccn(Cc4cccnc4)n3)c2C1 [Cpd. No. 23, 1-(2-phenyl-4-(1-(pyridin-3-ylmethyl)-1H-pyrazol-3-yl)-5,7-dihydro-6H-pyrrolo[3,4-d]pyrimidin-6-yl)prop-2-en-1-one]
< 1000 nM	–	–	C=CC(=O)N1CCc2cnc(-c3ccccc3)nc2C1 [Cpd. No. 68, 1-(2-phenyl-5,8-dihydropyrido[3,4-d]pyrimidin-7(6H)-yl)prop-2-en-1-one]
1000 to 3000 nM	–	–	C=CC(=O)N1CCc2c(nc(-c3ccccc3)nc2-c2cnn(C(F)F)c2)C1 [Cpd. No. 61, 1-(4-(1-(difluoromethyl)-1H-pyrazol-4-yl)-2-phenyl-5,8-dihydropyrido[3,4-d]pyrimidin-7(6H)-yl)prop-2-en-1-one]
